# Publication PMC7243081 (Slas Discovery, 2019)
# Read-outs that look alike come from different tables or passages of the source.
# Assays:
# [1] = biological target: T1, α1, β2, and γ2s subunits of the rat GABAA receptors (HEK-GABA cells) (Rattus norvegicus, UniProt P18508+P62813+P63138); assay: QP-DHM modulator mode; format: cell-based; settings: maximum concentration of compound, with GABA at EC30, Fig. 3D
# [2] = tested on: α1β2γ2 expressed in Xenopus oocytes; settings: read-out: EC50 as modulator; cited from earlier work
# [3] = biological target: T1, α1, β2, and γ2s subunits of the rat GABAA receptors (HEK-GABA cells); assay: QP-DHM blind agonist screen; format: cell-based
# Wild-type HEK cells = settings: patch clamp; cited from earlier work
# [4] = tested on: human α1β2γ2L GABAA receptor subunits in L(tk−) cells; settings: L(tk−) cells stably transfected with human α1β2γ2L; cited from earlier work
# [5] = biological target: T1, α1, β2, and γ2s subunits of the rat GABAA receptors (HEK-GABA cells); assay: Whole-cell electrophysiology recording on HEK-GABA cells; format: cell-based; settings: electrophysiology vs QP-DHM
# GABAA receptor = settings: cited from earlier work; for IC50: read-out: reported IC50
# [6] = biological target: GABAA receptor (α1, β2, and γ2s subunits, HEK-GABA) (Rattus norvegicus, UniProt P18508+P62813+P63138); format: cell-based
# [7] = Table 1, dose-response curves of validated hits
# T1 sequence (P62813 28-455): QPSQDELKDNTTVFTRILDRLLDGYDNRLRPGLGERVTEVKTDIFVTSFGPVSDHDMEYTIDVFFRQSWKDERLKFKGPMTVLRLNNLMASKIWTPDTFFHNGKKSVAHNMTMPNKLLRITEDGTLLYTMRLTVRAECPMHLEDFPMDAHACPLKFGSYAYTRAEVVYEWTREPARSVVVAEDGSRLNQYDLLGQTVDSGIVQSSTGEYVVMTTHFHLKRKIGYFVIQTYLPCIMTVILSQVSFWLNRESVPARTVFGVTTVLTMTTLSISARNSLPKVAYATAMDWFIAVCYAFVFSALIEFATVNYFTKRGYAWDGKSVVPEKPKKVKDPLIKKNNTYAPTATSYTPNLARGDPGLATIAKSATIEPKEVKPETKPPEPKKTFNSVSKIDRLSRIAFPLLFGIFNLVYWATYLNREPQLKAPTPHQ
# T1 sequence (P63138 25-474 limits assumed): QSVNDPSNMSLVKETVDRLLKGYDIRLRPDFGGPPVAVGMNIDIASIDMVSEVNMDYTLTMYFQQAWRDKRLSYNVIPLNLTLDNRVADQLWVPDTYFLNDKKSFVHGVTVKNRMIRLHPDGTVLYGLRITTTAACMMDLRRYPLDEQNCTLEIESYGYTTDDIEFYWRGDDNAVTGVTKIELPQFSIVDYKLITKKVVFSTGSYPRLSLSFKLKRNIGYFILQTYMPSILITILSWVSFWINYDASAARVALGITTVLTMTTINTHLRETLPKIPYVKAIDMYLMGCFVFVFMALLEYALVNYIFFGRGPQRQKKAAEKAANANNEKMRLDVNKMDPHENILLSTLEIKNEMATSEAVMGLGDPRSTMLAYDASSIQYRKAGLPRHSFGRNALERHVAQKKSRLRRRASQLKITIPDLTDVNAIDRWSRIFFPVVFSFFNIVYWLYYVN
# T1 sequence (P18508 39-466): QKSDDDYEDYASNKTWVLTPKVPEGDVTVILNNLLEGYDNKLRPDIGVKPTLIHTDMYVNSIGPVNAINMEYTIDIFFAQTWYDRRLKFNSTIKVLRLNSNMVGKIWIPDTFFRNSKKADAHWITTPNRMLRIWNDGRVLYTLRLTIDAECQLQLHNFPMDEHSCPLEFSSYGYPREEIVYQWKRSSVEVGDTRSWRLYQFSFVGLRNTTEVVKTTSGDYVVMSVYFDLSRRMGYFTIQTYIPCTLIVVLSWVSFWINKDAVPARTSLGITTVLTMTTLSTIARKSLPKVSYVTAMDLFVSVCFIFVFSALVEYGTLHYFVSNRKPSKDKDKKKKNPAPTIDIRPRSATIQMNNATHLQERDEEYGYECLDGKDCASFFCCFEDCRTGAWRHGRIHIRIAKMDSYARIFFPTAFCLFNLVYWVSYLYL
# Sequence of GABAA receptor (α1, β2, and γ2s subunits, HEK-GABA) (P62813 28-455): as the sequence (P62813 28-455) above
# Sequence of GABAA receptor (α1, β2, and γ2s subunits, HEK-GABA) (P63138 25-474 limits assumed): as the sequence (P63138 25-474 limits assumed) above
# Sequence of GABAA receptor (α1, β2, and γ2s subunits, HEK-GABA) (P18508 39-466): as the sequence (P18508 39-466) above
compound,measurement,setting,value
CCN(C(C)=O)c1cccc(-c2ccnc3c(C#N)cnn23)c1 [Zaleplon],effect of GABA increased to % of the maximum (GABA at 10 µM),[1],41%
same,EC50,[2],0.17 µM
CC(=O)OC1CCC2(C)C(CCC3C4CCC(C(C)=O)C4(C)CC(=O)C32)C1 (stereo not drawn),result in blind agonist screen,[3]; natural products collection,negative
NCCCC(=O)O [GABA],electrophysiological response of wild-type HEK cells,Wild-type HEK cells,no electrophysiological response
COc1cc2c(c(OC)c1OC)-c1ccc(OC)c(=O)cc1[C@@H](NC(C)=O)CC2 [Colchicine],effect on GABA currents,[4],significantly inhibits GABA currents
NCc1cc(=O)[nH]o1 [Muscimol],EC50,[3],0.2 µM
same,Amplitude (%),[3]; [7],100%
same,Hill Coefficient,[3]; [7],1.9
CC[C@H](C)[C@H]1O[C@]2(C=C[C@@H]1C)C[C@@H]1C[C@@H](C/C=C(\C)[C@@H](O[C@H]3C[C@H](OC)[C@@H](O[C@H]4C[C@H](OC)[C@@H](O)[C@H](C)O4)[C@H](C)O3)[C@@H](C)/C=C/C=C3\CO[C@@H]4[C@H](O)C(C)=C[C@@H](C(=O)O1)[C@]34O)O2 [Avermectin B1a],EC50 with electrophysiology relative to QP-DHM (fold higher),[5],~ 10 ×
same,EC50,[3],6.9 µM
same,Amplitude (%),[3]; [7],94%
same,Hill Coefficient,[3]; [7],6.3
same,Amplitude (%),"[3]; Table 2, avermectin family",94%
same,Hill Coefficient,"[3]; Table 2, avermectin family",6.3
Ivermectin,EC50 with electrophysiology relative to QP-DHM (fold higher),[5],~ 10 ×
same,rise time relative to GABA (times longer),GABAA receptor,about 500 times
Picrotoxin,IC50,GABAA receptor; in the presence of 10 μM GABA,3.1 µM
"CC[C@]1(O)C[C@@H]2CN(CCc3c([nH]c4ccccc34)[C@@](C(=O)OC)(c3cc4c(cc3OC)N(C)[C@H]3[C@@](O)(C(N)=O)[C@H](O)[C@]5(CC)C=CCN6CC[C@]43[C@@H]65)C2)C1 [STOCK1N-75293, Vindesine]",outcome of hits validation (activity and specificity for the GABAA receptor),[6],marginal effect
CN1CCc2cc3c(cc2[C@H]1[C@@H]1OC(=O)c2c1ccc1c2OCO1)OCO3 [(+)-Bicuculline],IC50,GABAA receptor; in the presence of 3 μM GABA,0.9 µM
same,IC50,GABAA receptor; in the presence of 10 μM GABA,0.53 µM
COc1ccc(-c2ccc(=N)n(CCCC(=O)O)n2)cc1 [Gabazine],IC50,GABAA receptor; in the presence of 3 μM GABA,~0.2 µM
